Reference: US11780893B2, “Kv1.3 blockers” (Zealand Pharma A/S, priority 2019, dated 2023)
Like-named read-outs stand apart in the source and are kept apart here. Bridge positions count the residues as written; N and C are the ends. Square brackets hold non-standard residues; d marks the D form. Peptide text beside a SMILES is read from it. Phe(4-NO2) = N[C@@H](Cc1ccc([N+](=O)[O-])cc1)C(=O)O; Phe(4-F) = N[C@@H](Cc1ccc(F)cc1)C(=O)O; Phe(4-Me) = Cc1ccc(C[C@H](N)C(=O)O)cc1; Aad = N[C@@H](CCCC(=O)O)C(=O)O; Nle = CCCC[C@H](N)C(=O)O

Columns and labels:
[1] = molecular target: T1, human Kv1.3 voltage-gated K+ channel (Homo sapiens, UniProt P22001); experiment: cell-based; settings: inhibition of thallium flux, CHO-DUKX cells with human Kv1.3; read-out: IC50
T1 construct: host or cells: CHO-DUKX

Rat whole blood = Rat whole blood (Rattus norvegicus, UniProt P15384)
[2] = inhibition of IL-17A release, thapsigargin, 24 Hr, at least 2 replicates

T1 sequence (P22001 whole entry): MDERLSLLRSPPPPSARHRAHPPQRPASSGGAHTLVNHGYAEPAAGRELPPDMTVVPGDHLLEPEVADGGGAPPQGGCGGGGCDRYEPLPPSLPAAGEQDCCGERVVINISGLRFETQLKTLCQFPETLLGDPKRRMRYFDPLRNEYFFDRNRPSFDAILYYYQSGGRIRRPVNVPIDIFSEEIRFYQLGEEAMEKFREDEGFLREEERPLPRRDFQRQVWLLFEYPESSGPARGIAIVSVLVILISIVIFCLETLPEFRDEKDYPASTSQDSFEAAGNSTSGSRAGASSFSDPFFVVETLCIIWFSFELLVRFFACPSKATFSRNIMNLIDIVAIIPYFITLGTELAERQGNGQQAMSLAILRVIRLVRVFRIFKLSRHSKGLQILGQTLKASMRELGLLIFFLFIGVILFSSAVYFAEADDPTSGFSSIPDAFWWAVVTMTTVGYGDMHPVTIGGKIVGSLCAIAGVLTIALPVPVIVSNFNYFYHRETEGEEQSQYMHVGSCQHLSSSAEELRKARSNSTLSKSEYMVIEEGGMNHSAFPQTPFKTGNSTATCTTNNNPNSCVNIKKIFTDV
Chain of Rat whole blood (P15384 whole entry): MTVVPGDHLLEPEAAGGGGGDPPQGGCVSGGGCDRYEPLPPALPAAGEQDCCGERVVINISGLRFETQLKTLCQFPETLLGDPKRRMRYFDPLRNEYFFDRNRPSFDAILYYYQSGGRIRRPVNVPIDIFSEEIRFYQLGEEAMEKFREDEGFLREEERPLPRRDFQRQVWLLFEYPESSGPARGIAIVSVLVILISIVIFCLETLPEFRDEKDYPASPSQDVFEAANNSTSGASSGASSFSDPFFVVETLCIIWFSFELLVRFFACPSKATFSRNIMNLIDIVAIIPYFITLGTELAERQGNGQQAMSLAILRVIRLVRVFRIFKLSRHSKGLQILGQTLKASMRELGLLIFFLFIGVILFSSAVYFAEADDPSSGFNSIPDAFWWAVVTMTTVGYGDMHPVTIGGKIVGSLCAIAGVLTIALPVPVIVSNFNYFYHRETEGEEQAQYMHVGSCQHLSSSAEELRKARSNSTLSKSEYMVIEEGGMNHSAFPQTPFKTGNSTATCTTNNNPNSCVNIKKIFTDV

| SMILES | IC50 [1] [pM] | IC50 (Rat whole blood; [2]) [pM] | IC50 (Rat whole blood) [pM] |
| --- | --- | --- | --- |
| CCCC[C@H](NC(=O)[C@@H]1CCCN1)C(=O)N[C@@H](CC(=O)O)C(=O)N[C@@H](CCCC)C(=O)N[C@@H](CCCNC(=N)N)C(=O)N[C@H]1CSSC[C@@H]2NC(=O)[C@H](CCCCN)NC(=O)CNC(=O)[C@H](Cc3ccccc3)NC(=O)[C@H]([C@@H](C)CC)NC(=O)[C@H](CO)NC(=O)CNC(=O)[C@H]([C@@H](C)CC)NC(=O)[C@H](C)NC(=O)[C@H](CCCC(N)=O)NC(=O)[C@H](CC(C)C)NC(=O)[C@@H]3CSSC[C@@H](C(=O)N[C@@H](Cc4ccc(O)cc4)C(=O)N4CCC[C@H]4C(=O)N[C@@H](CCCNC(=N)N)C(N)=O)NC(=O)[C@H](CCCCN)NC(=O)[C@H](CSSC[C@H](NC(=O)[C@H](CCC(=O)O)NC(=O)[C@H](C(C)C)NC(=O)[C@H](CO)NC(=O)[C@H](C)NC(=O)[C@H](CO)NC1=O)C(=O)N[C@@H](CCCCN)C(=O)N[C@@H](CCC(=O)O)C(=O)N[C@@H](CCCCN)C(=O)N3)NC(=O)[C@H](CCCCN)NC(=O)[C@H](CCCCN)NC(=O)[C@H](CC(N)=O)NC(=O)[C@H](CCCC)NC2=O [Compound 85] (H-P[Nle]D[Nle]RCSASVECKEKCL[Aad](NH2)AIGSIFGKC[Nle]NKKCKCYPR-NH2; disulfide 6-27, 12-32, 16-34) | 150 | 1400 | – |
| CCCC[C@@H]1NC(=O)[C@@H]2CSSC[C@H](N)C(=O)N[C@@H](CO)C(=O)N[C@@H](C)C(=O)N[C@@H](CO)C(=O)N[C@@H](C(C)C)C(=O)N[C@@H](CCC(=O)O)C(=O)N[C@H]3CSSC[C@H](NC(=O)[C@H](CCCCN)NC(=O)[C@H](CCCCN)NC(=O)[C@H](CC(N)=O)NC1=O)C(=O)N[C@@H](CCCCN)C(=O)N[C@H]1CSSC[C@H](NC(=O)[C@H](CCCCN)NC(=O)[C@H](CCC(N)=O)NC(=O)[C@H](CCCCN)NC3=O)C(=O)N[C@@H](CC(C)C)C(=O)N[C@@H](CCCCN)C(=O)N[C@@H](C)C(=O)N[C@@H]([C@@H](C)CC)C(=O)NCC(=O)N[C@@H](CSSC[C@@H](C(N)=O)NC(=O)[C@@H]3CCCN3C(=O)[C@H](Cc3ccc(O)cc3)NC1=O)C(=O)N[C@@H]([C@@H](C)CC)C(=O)N[C@@H](Cc1ccccc1)C(=O)NCC(=O)N[C@@H](CCCCN)C(=O)N2 [Compound 86] (H-CSASVECKQKCLKAIGCIFGKC[Nle]NKKCKCYPC-NH2; disulfide 1-22, 7-27, 11-29, 17-32) | 200 | 1100 | – |
| CCCC[C@@H]1NC(=O)[C@@H]2CSSC[C@H](NC(=O)[C@H](CCCNC(=N)N)NC(=O)[C@H](CCCC)NC(=O)[C@H](CC(=O)O)NC(=O)[C@H](CCCC)NC(=O)[C@@H](N)CO)C(=O)N[C@@H](CO)C(=O)N[C@@H](C)C(=O)N[C@@H](CO)C(=O)N[C@@H](C(C)C)C(=O)N[C@@H](CCC(=O)O)C(=O)N[C@H]3CSSC[C@H](NC(=O)[C@H](CCCCN)NC(=O)[C@H](CCCCN)NC(=O)[C@H](CC(N)=O)NC1=O)C(=O)N[C@@H](CCCCN)C(=O)N[C@H]1CSSC[C@H](NC(=O)[C@H](CCCCN)NC(=O)[C@H](CCC(N)=O)NC(=O)[C@H](CCCCN)NC3=O)C(=O)N[C@@H](CC(C)C)C(=O)N[C@@H](C)C(=O)N[C@@H](C)C(=O)N[C@@H]([C@@H](C)CC)C(=O)NCC(=O)N[C@@H](CSSC[C@@H](C(N)=O)NC(=O)[C@@H]3CCCN3C(=O)[C@H](Cc3ccc(O)cc3)NC1=O)C(=O)N[C@@H]([C@@H](C)CC)C(=O)N[C@@H](Cc1ccccc1)C(=O)NCC(=O)N[C@@H](CCCCN)C(=O)N2 [Compound 87] (H-S[Nle]D[Nle]RCSASVECKQKCLAAIGCIFGKC[Nle]NKKCKCYPC-NH2; disulfide 6-27, 12-32, 16-34, 22-37) | 100 | 730 | ≤ 1000 |
| CCCC[C@H](NC(=O)[C@@H]1CCCN1)C(=O)N[C@@H](CC(=O)O)C(=O)N[C@@H](CCCC)C(=O)N[C@@H](CCCNC(=N)N)C(=O)N[C@H]1CSSC[C@@H]2NC(=O)[C@H](CCCCN)NC(=O)CNC(=O)[C@H](Cc3ccccc3)NC(=O)[C@H]([C@@H](C)CC)NC(=O)[C@@H]3CSSC[C@@H](C(=O)O)NC(=O)[C@@H]4CCCN4C(=O)[C@H](Cc4ccc(O)cc4)NC(=O)[C@@H]4CSSC[C@H](NC(=O)[C@H](CCCCN)NC(=O)[C@H](CCC(N)=O)NC(=O)[C@H](CCCCN)NC(=O)[C@H](CSSC[C@H](NC(=O)[C@H](CCCCN)NC(=O)[C@H](CCCCN)NC(=O)[C@H](CC(N)=O)NC(=O)[C@H](CCCC)NC2=O)C(=O)N[C@@H](CCCCN)C(=O)N4)NC(=O)[C@H](CCC(=O)O)NC(=O)[C@H](C(C)C)NC(=O)[C@H](CO)NC(=O)[C@H](C)NC(=O)[C@H](CO)NC1=O)C(=O)N[C@@H](CC(C)C)C(=O)N[C@@H](CCCCN)C(=O)N[C@@H](C)C(=O)N[C@@H]([C@@H](C)CC)C(=O)NCC(=O)N3 [Compound 88] (H-P[Nle]D[Nle]RCSASVECKQKCLKAIGCIFGKC[Nle]NKKCKCYPC-OH; disulfide 6-27, 12-32, 16-34, 22-37) | 270 | 1100 | – |
| CCCC[C@H](NC(=O)[C@H](CC(=O)O)NC(=O)[C@H](CCCC)NC(=O)[C@@H](N)CO)C(=O)N[C@@H](CCCNC(=N)N)C(=O)N[C@H]1CSSC[C@@H]2NC(=O)[C@H](CCCCN)NC(=O)CNC(=O)[C@H](Cc3ccccc3)NC(=O)[C@H]([C@@H](C)CC)NC(=O)[C@H](CO)NC(=O)CNC(=O)[C@H]([C@@H](C)CC)NC(=O)[C@H](C)NC(=O)[C@H](CCCCN)NC(=O)[C@H](CC(C)C)NC(=O)[C@@H]3CSSC[C@@H](C(=O)N[C@@H](Cc4ccc(F)cc4)C(=O)N4CCC[C@H]4C(=O)N[C@@H](CCCNC(=N)N)C(N)=O)NC(=O)[C@H](CCCCN)NC(=O)[C@H](CSSC[C@H](NC(=O)[C@H](CCC(=O)O)NC(=O)[C@H](C(C)C)NC(=O)[C@H](CO)NC(=O)[C@H](C)NC(=O)[C@H](CO)NC1=O)C(=O)N[C@@H](CCCCN)C(=O)N[C@@H](CCC(N)=O)C(=O)N[C@@H](CCCCN)C(=O)N3)NC(=O)[C@H](CCCCN)NC(=O)[C@H](CCCCN)NC(=O)[C@H](CC(N)=O)NC(=O)[C@H](CCSC)NC2=O [Compound 91] (H-S[Nle]D[Nle]RCSASVECKQKCLKAIGSIFGKCMNKKCKC[Phe(4-F)]PR-NH2; disulfide 6-27, 12-32, 16-34) | 100 | 340 | ≤ 1000 |
| CCCC[C@H](NC(=O)[C@H](CC(=O)O)NC(=O)[C@H](CCCC)NC(=O)[C@@H](N)CO)C(=O)N[C@@H](CCCNC(=N)N)C(=O)N[C@H]1CSSC[C@@H]2NC(=O)[C@H](CCCCN)NC(=O)CNC(=O)[C@H](Cc3ccccc3)NC(=O)[C@H]([C@@H](C)CC)NC(=O)[C@H](CO)NC(=O)CNC(=O)[C@H]([C@@H](C)CC)NC(=O)[C@H](C)NC(=O)[C@H](CCCCN)NC(=O)[C@H](CC(C)C)NC(=O)[C@@H]3CSSC[C@@H](C(=O)N[C@@H](Cc4ccc([N+](=O)[O-])cc4)C(=O)N4CCC[C@H]4C(=O)N[C@@H](CCCNC(=N)N)C(N)=O)NC(=O)[C@H](CCCCN)NC(=O)[C@H](CSSC[C@H](NC(=O)[C@H](CCC(=O)O)NC(=O)[C@H](C(C)C)NC(=O)[C@H](CO)NC(=O)[C@H](C)NC(=O)[C@H](CO)NC1=O)C(=O)N[C@@H](CCCCN)C(=O)N[C@@H](CCC(N)=O)C(=O)N[C@@H](CCCCN)C(=O)N3)NC(=O)[C@H](CCCCN)NC(=O)[C@H](CCCCN)NC(=O)[C@H](CC(N)=O)NC(=O)[C@H](CCSC)NC2=O [Compound 92] (H-S[Nle]D[Nle]RCSASVECKQKCLKAIGSIFGKCMNKKCKC[Phe(4-NO2)]PR-NH2; disulfide 6-27, 12-32, 16-34) | 490 | 1300 | – |
| CCCC[C@H](NC(=O)[C@H](CC(=O)O)NC(=O)[C@H](CCCC)NC(=O)[C@@H](N)CO)C(=O)N[C@@H](CCCNC(=N)N)C(=O)N[C@H]1CSSC[C@@H]2NC(=O)[C@H](CCCCN)NC(=O)CNC(=O)[C@H](Cc3ccccc3)NC(=O)[C@H]([C@@H](C)CC)NC(=O)[C@H](CO)NC(=O)CNC(=O)[C@H]([C@@H](C)CC)NC(=O)[C@H](C)NC(=O)[C@H](CCCCN)NC(=O)[C@H](CC(C)C)NC(=O)[C@@H]3CSSC[C@@H](C(=O)N[C@@H](Cc4ccc(C)cc4)C(=O)N4CCC[C@H]4C(=O)N[C@@H](CCCNC(=N)N)C(N)=O)NC(=O)[C@H](CCCCN)NC(=O)[C@H](CSSC[C@H](NC(=O)[C@H](CCC(=O)O)NC(=O)[C@H](C(C)C)NC(=O)[C@H](CO)NC(=O)[C@H](C)NC(=O)[C@H](CO)NC1=O)C(=O)N[C@@H](CCCCN)C(=O)N[C@@H](CCC(N)=O)C(=O)N[C@@H](CCCCN)C(=O)N3)NC(=O)[C@H](CCCCN)NC(=O)[C@H](CCCCN)NC(=O)[C@H](CC(N)=O)NC(=O)[C@H](CCSC)NC2=O [Compound 93] (H-S[Nle]D[Nle]RCSASVECKQKCLKAIGSIFGKCMNKKCKC[Phe(4-Me)]PR-NH2; disulfide 6-27, 12-32, 16-34) | 130 | 540 | – |
| CCCC[C@H](NC(=O)[C@@H]1CCCN1)C(=O)N[C@@H](CCC(=O)O)C(=O)N[C@@H](CCCC)C(=O)N[C@@H](CCCNC(=N)N)C(=O)N[C@H]1CSSC[C@@H]2NC(=O)[C@H](CCCCN)NC(=O)CNC(=O)[C@H](Cc3ccccc3)NC(=O)[C@H]([C@@H](C)CC)NC(=O)[C@H](CO)NC(=O)CNC(=O)[C@H]([C@@H](C)CC)NC(=O)[C@H](C)NC(=O)[C@H](CC(C)C)NC(=O)[C@H](CC(C)C)NC(=O)[C@@H]3CSSC[C@@H](C(=O)N[C@@H](Cc4ccc(O)cc4)C(=O)N4CCC[C@H]4C(=O)N[C@@H](CCCNC(=N)N)C(=O)O)NC(=O)[C@H](CCCCN)NC(=O)[C@H](CSSC[C@H](NC(=O)[C@H](CCC(=O)O)NC(=O)[C@H](C(C)C)NC(=O)[C@H](CO)NC(=O)[C@H](C)NC(=O)[C@H](CO)NC1=O)C(=O)N[C@@H](CCCCN)C(=O)N[C@@H](CCC(N)=O)C(=O)N[C@@H](CCCCN)C(=O)N3)NC(=O)[C@H](CCCCN)NC(=O)[C@H](CCCCN)NC(=O)[C@H](CC(N)=O)NC(=O)[C@H](CCCC)NC2=O [Compound 99] (H-P[Nle]E[Nle]RCSASVECKQKCLLAIGSIFGKC[Nle]NKKCKCYPR-OH; disulfide 6-27, 12-32, 16-34) | 340 | 500 | ≤ 1000 |
